Earlier results on one substance are cited in patent US20160243146A1, “LEVIA : A New Injectable Parasiticidal Veterinary Formulation of Levamisole HCl and Ivermectin Solution” (priority 2015, published 2016).

The conditions of data set [1]: dissolved in propylene glycol solvent.

Consider Ivermectin, for which the solubility in water result (room temperature) is given as “about 0.005 mg per ml”. Besides, under “water”, the stability in water result is “unstable in water”. In addition, the “period of release into the blood” value in data set [1] is on record as “up to 14 days”.
